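Results reflect a 48-hour exposure of cells in 96-well plates to compound at five concentrations. GI50 marks 50% less growth. TGI: total growth inhibition.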
Legend:
Test in all cases: inhibition of tumour cell growth, NCI panel, 48 h
[1] = tested on: HOP-92 NSCLC
[2] = tested on: TK-10 renal
[3] = tested on: SF-268 CNS
[4] = tested on: NCI-H226 lung
[5] = tested on: BT-549 breast
[6] = tested on: RPMI-8226 leukemia
[7] = tested on: T-47D breast
[8] = tested on: SK-OV-3 ovarian
[9] = tested on: UO-31 renal
[10] = tested on: U251 CNS
[11] = tested on: ACHN renal
[12] = tested on: NCI/ADR-RES ovarian
[13] = tested on: SW-620 colon
[14] = tested on: HCT-15 colon
[15] = tested on: NCI-H460 lung
[16] = tested on: SF-539 CNS
[17] = tested on: HCT-116 colon
[18] = tested on: OVCAR-3 ovarian
[19] = tested on: A498 renal
[20] = tested on: KM12 colon
[21] = tested on: CAKI-1 renal
[22] = tested on: OVCAR-8 ovarian
[23] = tested on: MDA-MB-435
[24] = tested on: DU-145 prostate
[25] = tested on: MCF7 breast
[26] = tested on: UACC-257 melanoma
[27] = tested on: LOX IMVI melanoma
[28] = tested on: RXF 393 renal
[29] = tested on: A549 NSCLC
[30] = tested on: NCI-H23 lung
[31] = tested on: CCRF-CEM leukemia
[32] = tested on: HOP-62 NSCLC
[33] = tested on: EKVX NSCLC
[34] = tested on: OVCAR-4 ovarian
[35] = tested on: SNB-19 CNS
[36] = tested on: SNB-75 CNS
[37] = tested on: PC-3 prostate
[38] = tested on: M14 melanoma
[39] = tested on: HS 578T breast
[40] = tested on: 786-0 renal
[41] = tested on: NCI-H522 lung
[42] = tested on: MOLT-4 leukemia
[43] = tested on: IGROV1 ovarian
[44] = tested on: SK-MEL-2 melanoma
[45] = tested on: HT29 colon
[46] = tested on: MDA-MB-231 breast
[47] = tested on: MALME-3M melanoma
[48] = tested on: HL-60(TB) leukemia
[49] = tested on: SR leukemia
[50] = tested on: SF-295 CNS
[51] = tested on: OVCAR-5 ovarian
[52] = tested on: COLO 205 colon
[53] = tested on: SK-MEL-5 melanoma
[54] = tested on: UACC-62 melanoma
[55] = tested on: K-562 leukemia
[56] = tested on: SN12C renal
[57] = tested on: SK-MEL-28 melanoma
[58] = tested on: HCC-2998 colon

In the case of `COc1cc2nc3cc([N+](=O)[O-])ccc3c(NCCCNCCO)c2cc1OC`, the GI50 [1] is reported as 148 nM, the TGI [1] is reported as 438 nM and the GI50 [2] is reported as 276 nM. The TGI [2] was 923 nM, the GI50 [3] was 126 nM and the TGI [3] was 478 nM. It also gave a GI50 [4] of 196 nM, a TGI [4] of 505 nM and a GI50 [5] of 297 nM. For the same compound, the TGI [5] was 962 nM, the GI50 [6] was 567 nM and the TGI [6] was 4340 nM. For the same compound, the GI50 [7] was 205 nM, the TGI [7] was 531 nM and the GI50 [8] was 265 nM. The TGI [8] was 711 nM, the GI50 [9] was 2150 nM and the TGI [9] was 14200 nM. For the same compound, the GI50 [10] was 149 nM, the TGI [10] was 433 nM and the GI50 [11] was 256 nM. The TGI [11] was 914 nM, the GI50 [12] was 31400 nM and the TGI [12] was > 100000 nM. The GI50 [13] was 210 nM, the TGI [13] was 1030 nM and the GI50 [14] was 3590 nM. It also gave a TGI [14] of 19500 nM, a GI50 [15] of 264 nM and a TGI [15] of 624 nM. It also gave a GI50 [16] of 191 nM, a TGI [16] of 478 nM and a GI50 [17] of 115 nM. The TGI [17] was 385 nM, the GI50 [18] was 244 nM and the TGI [18] was 622 nM. For the same compound, the GI50 [19] was 214 nM, the TGI [19] was 527 nM and the GI50 [20] was 285 nM. For the same compound, the TGI [20] was 843 nM, the GI50 [21] was 2620 nM and the TGI [21] was 16700 nM. It also gave a GI50 [22] of 202 nM, a TGI [22] of 721 nM and a GI50 [23] of 179 nM. It also gave a TGI [23] of 336 nM, a GI50 [24] of 194 nM and a TGI [24] of 645 nM. The GI50 [25] was 120 nM, the TGI [25] was 626 nM and the GI50 [26] was 342 nM. It also gave a TGI [26] of 951 nM, a GI50 [27] of 243 nM and a TGI [27] of 664 nM. It also gave a GI50 [28] of 186 nM, a TGI [28] of 473 nM and a GI50 [29] of 255 nM. It also gave a TGI [29] of 635 nM, a GI50 [30] of 143 nM and a TGI [30] of 616 nM. For the same compound, the GI50 [31] was 211 nM, the TGI [31] was 1410 nM and the GI50 [32] was 146 nM. The TGI [32] was 422 nM, the GI50 [33] was 353 nM and the TGI [33] was 4630 nM. It also gave a GI50 [34] of 114 nM, a TGI [34] of 385 nM and a GI50 [35] of 137 nM. The TGI [35] was 495 nM, the GI50 [36] was 128 nM and the TGI [36] was 260 nM. The GI50 [37] was 213 nM, the TGI [37] was 483 nM and the GI50 [38] was 205 nM. The TGI [38] was 437 nM, the GI50 [39] was 184 nM and the TGI [39] was 612 nM. For the same compound, the GI50 [40] was 239 nM, the TGI [40] was 896 nM and the GI50 [41] was 41 nM. The TGI [41] was 213 nM, the GI50 [42] was 244 nM and the TGI [42] was 5400 nM. The GI50 [43] was 225 nM, the TGI [43] was 672 nM and the GI50 [44] was 187 nM. The TGI [44] was 389 nM, the GI50 [45] was 212 nM and the TGI [45] was 569 nM. It also gave a GI50 [46] of 130 nM, a TGI [46] of 374 nM and a GI50 [47] of 189 nM. The TGI [47] was 359 nM, the GI50 [48] was 463 nM and the TGI [48] was 4320 nM. For the same compound, the GI50 [49] was 238 nM, the TGI [49] was 1710 nM and the GI50 [50] was 182 nM. It also gave a TGI [50] of 604 nM, a GI50 [51] of 220 nM and a TGI [51] of 899 nM. The GI50 [52] was 162 nM and the TGI [52] was 351 nM.
In the case of `Cc1ccc(C(=O)CN(/C=C/C(=O)C(F)(F)F)c2ccc(S(N)(=O)=O)cc2)cc1`, the GI50 [1] is reported as 99700 nM, the TGI [1] is reported as > 100000 nM and the GI50 [2] is reported as 44500 nM. The TGI [2] was > 100000 nM, the GI50 [3] was > 100000 nM and the TGI [3] was > 100000 nM. The GI50 [4] was > 100000 nM, the TGI [4] was > 100000 nM and the GI50 [5] was 58900 nM. The TGI [5] was > 100000 nM, the GI50 [6] was 29700 nM and the TGI [6] was > 100000 nM. For the same compound, the GI50 [53] was 49800 nM, the TGI [53] was > 100000 nM and the GI50 [7] was 70100 nM. For the same compound, the TGI [7] was > 100000 nM, the GI50 [8] was > 100000 nM and the TGI [8] was > 100000 nM. For the same compound, the GI50 [9] was > 100000 nM, the TGI [9] was > 100000 nM and the GI50 [10] was 48400 nM. The TGI [10] was > 100000 nM, the GI50 [11] was > 100000 nM and the TGI [11] was > 100000 nM. The GI50 [12] was 62900 nM, the TGI [12] was > 100000 nM and the GI50 [13] was > 100000 nM. The TGI [13] was > 100000 nM, the GI50 [14] was 86000 nM and the TGI [14] was > 100000 nM. For the same compound, the GI50 [15] was > 100000 nM, the TGI [15] was > 100000 nM and the GI50 [16] was > 100000 nM. For the same compound, the TGI [16] was > 100000 nM, the GI50 [17] was 41900 nM and the TGI [17] was > 100000 nM. For the same compound, the GI50 [18] was 42600 nM, the TGI [18] was > 100000 nM and the GI50 [19] was > 100000 nM. For the same compound, the TGI [19] was > 100000 nM, the GI50 [20] was 31400 nM and the TGI [20] was > 100000 nM. The GI50 [21] was 93000 nM, the TGI [21] was > 100000 nM and the GI50 [22] was 61200 nM. The TGI [22] was > 100000 nM, the GI50 [23] was > 100000 nM and the TGI [23] was > 100000 nM. The GI50 [24] was > 100000 nM, the TGI [24] was > 100000 nM and the GI50 [54] was > 100000 nM. The TGI [54] was > 100000 nM, the GI50 [25] was 59800 nM and the TGI [25] was > 100000 nM. The GI50 [26] was > 100000 nM, the TGI [26] was > 100000 nM and the GI50 [27] was 76000 nM. For the same compound, the TGI [27] was > 100000 nM, the GI50 [28] was > 100000 nM and the TGI [28] was > 100000 nM. For the same compound, the GI50 [29] was 63500 nM, the TGI [29] was > 100000 nM and the GI50 [30] was 37200 nM. For the same compound, the TGI [30] was > 100000 nM, the GI50 [31] was 30300 nM and the TGI [31] was > 100000 nM. For the same compound, the GI50 [32] was > 100000 nM, the TGI [32] was > 100000 nM and the GI50 [33] was 55200 nM. The TGI [33] was > 100000 nM, the GI50 [34] was > 100000 nM and the TGI [34] was > 100000 nM. For the same compound, the GI50 [37] was 59800 nM, the TGI [37] was > 100000 nM and the GI50 [38] was > 100000 nM. The TGI [38] was > 100000 nM, the GI50 [39] was 55300 nM and the TGI [39] was > 100000 nM. The GI50 [40] was > 100000 nM, the TGI [40] was > 100000 nM and the GI50 [41] was 53800 nM. The TGI [41] was > 100000 nM, the GI50 [42] was 44000 nM and the TGI [42] was > 100000 nM. For the same compound, the GI50 [43] was > 100000 nM, the TGI [43] was > 100000 nM and the GI50 [44] was > 100000 nM. The TGI [44] was > 100000 nM, the GI50 [55] was 39300 nM and the TGI [55] was > 100000 nM. For the same compound, the GI50 [45] was > 100000 nM, the TGI [45] was > 100000 nM and the GI50 [46] was > 100000 nM. The TGI [46] was > 100000 nM, the GI50 [47] was > 100000 nM and the TGI [47] was > 100000 nM. For the same compound, the GI50 [48] was 41100 nM, the TGI [48] was > 100000 nM and the GI50 [50] was 43800 nM. The TGI [50] was > 100000 nM, the GI50 [51] was > 100000 nM and the TGI [51] was > 100000 nM. The GI50 [56] was > 100000 nM, the TGI [56] was > 100000 nM and the GI50 [57] was > 100000 nM. For the same compound, the TGI [57] was > 100000 nM, the GI50 [52] was > 100000 nM and the TGI [52] was > 100000 nM. The GI50 [58] was > 100000 nM and the TGI [58] was > 100000 nM.
